Values joined by “and” are separate entries in the source; they are usually repeats but may differ in a detail not shown here. Identical values can stand only once. Toxic doses and inconclusive results are not listed. How the source made its calls: active means survival T/C of 150% or more; inactive means T/C below 125% in these data.
System: CD2F1 mice, L1210 leukemia ip, survival T/C
Assay: NCI In Vivo Anticancer Drug Screen. Data for tumor model L1210 Leukemia (intraperitoneal) in CD2F1 (CDF1) mice
Conditions: higher = longer survival
How it was run: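 Implant tumor; dose compound or vehicle; measure endpoint in both groups; report treated divided by control.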

[1] = endpoint: mean survival time, dose: 100.0 mg/kg/injection, schedule: Q04DX003 (ip), vehicle: other
[2] = endpoint: mean survival time, dose: 200.0 mg/kg/injection, schedule: Q04DX003 (ip), vehicle: other
[3] = endpoint: mean survival time, dose: 400.0 mg/kg/injection, schedule: Q04DX003 (ip), vehicle: other
[4] = endpoint: mean survival time, dose: 100.0 mg/kg/injection, schedule: Q04DX002 (ip), vehicle: saline with Tween-80
[5] = endpoint: mean survival time, dose: 200.0 mg/kg/injection, schedule: Q04DX002 (ip), vehicle: saline with Tween-80
[6] = endpoint: mean survival time, dose: 100.0 mg/kg/injection, schedule: Q01DX009 (ip), vehicle: saline with Tween-80
[7] = endpoint: mean survival time, dose: 100.0 mg/kg/injection, schedule: Q04DX003 (ip), vehicle: saline with Tween-80
[8] = endpoint: mean survival time, dose: 200.0 mg/kg/injection, schedule: Q01DX009 (ip), vehicle: saline with Tween-80
[9] = endpoint: mean survival time, dose: 200.0 mg/kg/injection, schedule: Q04DX003 (ip), vehicle: saline with Tween-80
[10] = endpoint: mean survival time, dose: 400.0 mg/kg/injection, schedule: Q01DX009 (ip), vehicle: saline with Tween-80
[11] = endpoint: mean survival time, dose: 400.0 mg/kg/injection, schedule: Q04DX003 (ip), vehicle: saline with Tween-80
[12] = endpoint: mean survival time, dose: 12.5 mg/kg/injection, schedule: Q01DX009 (ip), vehicle: saline with Tween-80
[13] = endpoint: mean survival time, dose: 25.0 mg/kg/injection, schedule: Q01DX009 (ip), vehicle: saline with Tween-80
[14] = endpoint: mean survival time, dose: 50.0 mg/kg/injection, schedule: Q01DX009 (ip), vehicle: saline with Tween-80
[15] = endpoint: mean survival time, dose: 100.0 mg/kg/injection, schedule: Q01DX001 (ip), vehicle: saline
[16] = endpoint: mean survival time, dose: 100.0 mg/kg/injection, schedule: Q04DX003 (ip), vehicle: saline
[17] = endpoint: mean survival time, dose: 200.0 mg/kg/injection, schedule: Q04DX003 (ip), vehicle: saline
[18] = endpoint: mean survival time, dose: 400.0 mg/kg/injection, schedule: Q04DX003 (ip), vehicle: saline

Measured: T/C

C=C(C)[C@H]1CN[C@H](C(=O)O)[C@H]1CC(=O)O
inactive: endpoint: mean survival time, dose: 5.0 mg/kg/injection, schedule: Q01DX001 (ip), vehicle: saline 94 % of control | endpoint: median survival time, dose: 0.31 mg/kg/injection, schedule: Q01DX009 (ip), vehicle: saline with Tween-80 103 % of control | endpoint: median survival time, dose: 0.62 mg/kg/injection, schedule: Q01DX009 (ip), vehicle: saline with Tween-80 101 % of control | endpoint: median survival time, dose: 1.25 mg/kg/injection, schedule: Q01DX009 (ip), vehicle: saline with Tween-80 100 % of control | endpoint: median survival time, dose: 2.5 mg/kg/injection, schedule: Q01DX009 (ip), vehicle: saline with Tween-80 101 % of control | endpoint: median survival time, dose: 2.5 mg/kg/injection, schedule: Q01DX009 (ip), vehicle: saline 96 % of control | endpoint: median survival time, dose: 5.0 mg/kg/injection, schedule: Q01DX009 (ip), vehicle: saline with Tween-80 101 % of control | endpoint: median survival time, dose: 5.0 mg/kg/injection, schedule: Q01DX009 (ip), vehicle: saline 103 % of control | endpoint: median survival time, dose: 6.25 mg/kg/injection, schedule: Q01DX009 (ip), vehicle: saline 104 % of control | endpoint: median survival time, dose: 10.0 mg/kg/injection, schedule: Q01DX009 (ip), vehicle: saline with Tween-80 101 % of control | endpoint: median survival time, dose: 10.0 mg/kg/injection, schedule: Q01DX009 (ip), vehicle: saline 101 % of control | endpoint: median survival time, dose: 12.5 mg/kg/injection, schedule: Q01DX009 (ip), vehicle: saline 108 % of control | endpoint: median survival time, dose: 20.0 mg/kg/injection, schedule: Q01DX009 (ip), vehicle: saline 95 % of control | endpoint: median survival time, dose: 25.0 mg/kg/injection, schedule: Q01DX009 (ip), vehicle: saline 97 % of control | endpoint: median survival time, dose: 40.0 mg/kg/injection, schedule: Q01DX009 (ip), vehicle: saline 93 % of control | endpoint: median survival time, dose: 50.0 mg/kg/injection, schedule: Q01DX009 (ip), vehicle: saline 96 % of control

BrCCOc1ccccc1
inactive: [1] 108 % of control | [2] 97 % of control | [3] 86 % of control

COC(=O)CCCc1c[nH]c2ccccc12
inactive: [1] 101 % of control | [2] 115 % of control | [3] 94 % of control

CN(CCC#N)c1ccc(C(=C2C=CC(=Nc3ccccc3)c3ccccc32)c2ccc(N(C)CCC#N)cc2)cc1
inactive: [4] 97 % of control | [5] 101 % of control

O=C(NC1c2ccccc2-c2ccccc21)C(F)(F)F
inactive: [6] 96 % of control | [7] 99 % of control | [8] 97 % of control | [9] 99 % of control | [10] 100 % of control | [11] 97 % of control

O=C1N[C@H]2[C@H](CS[C@H]2CCCCC(=O)N(CCP(c2ccccc2)c2ccccc2)CCP(c2ccccc2)c2ccccc2)N1
inactive: endpoint: median survival time, dose: 25.0 mg/kg/injection, schedule: Q01DX009 (ip), vehicle: Klucel (hydroxypropylcellulose) (HPC) 100 % of control and 107 % of control | endpoint: median survival time, dose: 50.0 mg/kg/injection, schedule: Q01DX009 (ip), vehicle: Klucel (hydroxypropylcellulose) (HPC) 98 % of control and 107 % of control | endpoint: median survival time, dose: 100.0 mg/kg/injection, schedule: Q01DX009 (ip), vehicle: Klucel (hydroxypropylcellulose) (HPC) 103 % of control and 109 % of control | endpoint: median survival time, dose: 200.0 mg/kg/injection, schedule: Q01DX009 (ip), vehicle: Klucel (hydroxypropylcellulose) (HPC) 97 % of control and 110 % of control | endpoint: median survival time, dose: 400.0 mg/kg/injection, schedule: Q01DX009 (ip), vehicle: Klucel (hydroxypropylcellulose) (HPC) 90 % of control and 108 % of control

C1=CC2c3ccccc3C1C1C=CC21 (centres undefined)
inactive: [6] 95 % of control | [7] 91 % of control | [8] 108 % of control | [9] 93 % of control | [10] 93 % of control | [11] 93 % of control

O=[N+]([O-])c1ccc(O)c(Cl)c1
inactive: [12] 86 % of control | [13] 89 % of control | [14] 106 % of control and 108 % of control

C=CN(C)OC
inactive: [15] 100 % of control

COc1ccc(CCNC(=O)Cc2cc3c(cc2[N+](=O)[O-])OCO3)cc1OC
inactive: [15] 95 % of control | endpoint: mean survival time, dose: 200.0 mg/kg/injection, schedule: Q01DX001 (ip), vehicle: saline 94 % of control | endpoint: mean survival time, dose: 400.0 mg/kg/injection, schedule: Q01DX001 (ip), vehicle: saline 95 % of control

CCOc1ccccc1NC(=O)NCC(=O)NNC(=O)Nc1ccc(Cl)c([N+](=O)[O-])c1
inactive: [6] 92 % of control | [8] 92 % of control | [10] 97 % of control

O=[N+]([O-])c1ccc(Cl)c2c([N+](=O)[O-])cccc12
inactive: [14] 100 % of control | [6] 93 % of control | [8] 96 % of control

CC1(C)N=C(N)N=C(N)N1c1ccc(CCCCc2ccc(S(=O)(=O)F)cc2)c(Cl)c1
inactive: endpoint: mean survival time, dose: 13.0 mg/kg/injection, schedule: Q01DX009 (ip), vehicle: saline with Tween-80 116 % of control | endpoint: mean survival time, dose: 20.0 mg/kg/injection, schedule: Q01DX009 (ip), vehicle: saline with Tween-80 120 % of control | endpoint: mean survival time, dose: 45.0 mg/kg/injection, schedule: Q01DX009 (ip), vehicle: saline with Tween-80 93 % of control

O=C(NC(C(=O)NC(C(=O)O)C1CC(Cl)=NO1)C1CC(Cl)=NO1)OCC1c2ccccc2-c2ccccc21 (centres undefined)
inactive: endpoint: mean survival time, dose: 1.6 mg/kg/injection, schedule: Q01DX009 (ip), vehicle: saline 122 % of control | endpoint: mean survival time, dose: 3.1 mg/kg/injection, schedule: Q01DX009 (ip), vehicle: saline 116 % of control | endpoint: mean survival time, dose: 25.0 mg/kg/injection, schedule: Q01DX009 (ip), vehicle: saline 87 % of control

Cc1cccc(C)c1C1=NCCN1
inactive: [12] 98 % of control | [13] 98 % of control | [14] 98 % of control

O=c1[nH]c(=O)n(C2CC(O)C(CO)O2)cc1Br (centres undefined)
inactive: endpoint: mean survival time, dose: 25.0 mg/kg/injection, schedule: Q01DX009 (ip), vehicle: Klucel (hydroxypropylcellulose) (HPC) 103 % of control | endpoint: mean survival time, dose: 50.0 mg/kg/injection, schedule: Q01DX009 (ip), vehicle: Klucel (hydroxypropylcellulose) (HPC) 123 % of control | endpoint: mean survival time, dose: 100.0 mg/kg/injection, schedule: Q01DX009 (ip), vehicle: Klucel (hydroxypropylcellulose) (HPC) 120 % of control | endpoint: mean survival time, dose: 200.0 mg/kg/injection, schedule: Q01DX009 (ip), vehicle: Klucel (hydroxypropylcellulose) (HPC) 112 % of control | endpoint: mean survival time, dose: 400.0 mg/kg/injection, schedule: Q01DX009 (ip), vehicle: Klucel (hydroxypropylcellulose) (HPC) 112 % of control | endpoint: mean survival time, dose: 800.0 mg/kg/injection, schedule: Q01DX009 (ip), vehicle: Klucel (hydroxypropylcellulose) (HPC) 115 % of control

CCOC(=O)C(=O)NCCc1ccc2c(c1)OCO2
inactive: endpoint: mean survival time, dose: 100.0 mg/kg/injection, schedule: Q01DX001 (ip), vehicle: saline with Tween-80 97 % of control | endpoint: mean survival time, dose: 200.0 mg/kg/injection, schedule: Q01DX001 (ip), vehicle: saline with Tween-80 95 % of control | endpoint: mean survival time, dose: 400.0 mg/kg/injection, schedule: Q01DX001 (ip), vehicle: saline with Tween-80 100 % of control

COc1ccc(C2(C(=O)O)CC(C)=C(C)CC2C(=O)O)cc1 (centres undefined)
inactive: [14] 88 % of control | [6] 93 % of control | [7] 97 % of control | [9] 95 % of control

CCN(CC)CC(=O)Nc1c(Cl)cccc1Cl
inactive: endpoint: mean survival time, dose: 100.0 mg/kg/injection, schedule: Q01DX009 (ip), vehicle: saline 98 % of control | [16] 104 % of control | endpoint: mean survival time, dose: 200.0 mg/kg/injection, schedule: Q01DX009 (ip), vehicle: saline 92 % of control | [17] 108 % of control | [18] 102 % of control

OC1CCCC2OC12 (centres undefined)
inactive: [16] 93 % of control | [17] 96 % of control | [18] 93 % of control

CCCCCCCC/C=C/CCCCCCCC1=NCCN1CCO
inactive: [4] 95 % of control | [5] 103 % of control | endpoint: mean survival time, dose: 400.0 mg/kg/injection, schedule: Q04DX002 (ip), vehicle: saline with Tween-80 100 % of control

O=NN(CCCl)C(=O)Nc1ccc(Br)cn1
inactive: endpoint: mean survival time, dose: 20.0 mg/kg/injection, schedule: Q01DX001 (ip), vehicle: carboxymethylcellulose (CMC) 115 % of control

CCOC/C=C\C1CCCC1
inactive: [14] 94 % of control | [6] 100 % of control | [8] 102 % of control

CCCCCCCCNC(C)=O
inactive: endpoint: mean survival time, dose: 6.25 mg/kg/injection, schedule: Q01DX009 (ip), vehicle: saline with Tween-80 93 % of control | [12] 90 % of control | [13] 94 % of control

Reference: PubChem BioAssay AID256 (DTP/NCI, 2004)
